The target in the test is T1, Chicken egg white lysozyme (CEWLZM) (Gallus gallus, UniProt P00698).
T1 construct: gene LYZ
The test can be described thus: SPR kinetics, CEWLZM amine-coupled on MUA gold chip, TA […], PBS pH […]°C. The format is binding.

We go through one compound from PMC11521726, “Surface plasmon resonance, molecular docking, and molecular dynamics simulation studies of lysozyme interaction with tannic acid” (Food Science & Nutrition, 2024).

T1 sequence (P00698 19-147): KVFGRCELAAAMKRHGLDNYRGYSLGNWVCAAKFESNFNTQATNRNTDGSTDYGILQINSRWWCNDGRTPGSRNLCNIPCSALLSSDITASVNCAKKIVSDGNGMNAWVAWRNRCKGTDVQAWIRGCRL

The Kd is a measure of binding affinity in units of concentration. The low end stands for higher affinity, the high end for lower affinity. `O=C(OC[C@H]1O[C@@H](OC(=O)c2cc(O)c(O)c(OC(=O)c3cc(O)c(O)c(O)c3)c2)[C@H](OC(=O)c2cc(O)c(O)c(OC(=O)c3cc(O)c(O)c(O)c3)c2)[C@@H](OC(=O)c2cc(O)c(O)c(OC(=O)c3cc(O)c(O)c(O)c3)c2)[C@@H]1OC(=O)c1cc(O)c(O)c(OC(=O)c2cc(O)c(O)c(O)c2)c1)c1cc(O)c(O)c(OC(=O)c2cc(O)c(O)c(O)c2)c1` [TA, tannic acid] registered a Kd of 41.7 µM.
